Measured values reported in ChEMBL document CHEMBL6134852, “Electrostatic Anchoring in RNA-Ligand Design─Dissecting the Effects of Positive Charges on Affinity, Selectivity, Binding Kinetics, and Thermodynamics” (J Med Chem, 2025).

Tests used:
Ribozyme [1] = test: Binding affinity to Tetrahymena group I ribozyme (unknown origin) assessed as dissociation constant; type: nucleic-acid assay
Ribozyme [2] = test: Binding affinity to Tetrahymena group I ribozyme (unknown origin) assessed as binding constant (Kon); type: nucleic-acid assay
Ribozyme [3] = test: Binding affinity to Tetrahymena group I ribozyme (unknown origin) assessed as binding constant (Koff); type: nucleic-acid assay
PreQ1 riboswitch [4] = test: Binding affinity to SA sensor chip-immobilized Tte preQ1 riboswitch aptamer assessed as dissociation constant by SPR analysis; type: nucleic-acid assay, Caldanaerobacter subterraneus, subsp. tengcongensis
PreQ1 riboswitch [5] = test: Binding affinity to SA sensor chip-immobilized Tte preQ1 riboswitch aptamer assessed as binding constant (Kon) by SPR analysis; type: nucleic-acid assay; conditions: Caldanaerobacter subterraneus; subsp. tengcongensis
PreQ1 riboswitch [6] = test: Binding affinity to SA sensor chip-immobilized Tte preQ1 riboswitch aptamer assessed as binding constant (Koff) by SPR analysis; type: nucleic-acid assay; conditions: Caldanaerobacter subterraneus; subsp. tengcongensis
PreQ1 riboswitch [7] = test: Binding affinity to SA sensor chip-immobilized Tte preQ1 riboswitch aptamer assessed as dissociation constant by SPR steady-state analysis; type: nucleic-acid assay, Caldanaerobacter subterraneus, subsp. tengcongensis
PreQ1 riboswitch [8] = test: Binding affinity to Tte preQ1 riboswitch aptamer assessed as dissociation constant by MST analysis; type: nucleic-acid assay, Caldanaerobacter subterraneus, subsp. tengcongensis
PreQ1 riboswitch [9] = test: Binding affinity to Tte preQ1 riboswitch aptamer assessed as dissociation constant by ITC analysis; type: nucleic-acid assay, Caldanaerobacter subterraneus, subsp. tengcongensis
PreQ1 riboswitch [10] = test: Binding affinity to Tte preQ1 riboswitch assessed as change in Gibb's free energy by ITC analysis; type: nucleic-acid assay; conditions: Caldanaerobacter subterraneus; subsp. tengcongensis
PreQ1 riboswitch [11] = test: Binding affinity to Tte preQ1 riboswitch aptamer assessed as change in enthalpy by ITC analysis; type: nucleic-acid assay; conditions: Caldanaerobacter subterraneus; subsp. tengcongensis
PreQ1 riboswitch [12] = test: Binding affinity to Tte preQ1 riboswitch aptamer assessed as change in entropy by ITC analysis; type: nucleic-acid assay; conditions: Caldanaerobacter subterraneus; subsp. tengcongensis
PreQ1 riboswitch [13] = test: Binding affinity to Tte preQ1 riboswitch aptamer assessed as binding constant (Kon) by ITC analysis; type: nucleic-acid assay; conditions: Caldanaerobacter subterraneus; subsp. tengcongensis
PreQ1 riboswitch [14] = test: Binding affinity to Tte preQ1 riboswitch aptamer assessed as binding constant (Koff) by ITC analysis; type: nucleic-acid assay; conditions: Caldanaerobacter subterraneus; subsp. tengcongensis
[15] = biological target: S-adenosylmethionine-VI riboswitch; test: Binding affinity to SA sensor chip-immobilized Bifidobacterium angulatum SAM-VI riboswitch aptamer assessed as dissociation constant by SPR analysis; type: nucleic-acid assay
[16] = tested on: S-adenosylmethionine-VI riboswitch; test: Binding affinity to SA sensor chip-immobilized Bifidobacterium angulatum SAM-VI riboswitch aptamer assessed as binding constant (Kon) by SPR analysis; type: nucleic-acid assay
[17] = tested on: S-adenosylmethionine-VI riboswitch; test: Binding affinity to SA sensor chip-immobilized Bifidobacterium angulatum SAM-VI riboswitch aptamer assessed as binding constant (Koff) by SPR analysis; type: nucleic-acid assay
[18] = biological target: S-adenosylmethionine-VI riboswitch; test: Binding affinity to SA sensor chip-immobilized Bifidobacterium angulatum SAM-VI riboswitch aptamer assessed as dissociation constant by SPR steady-state analysis; type: nucleic-acid assay
[19] = biological target: S-adenosylmethionine-VI riboswitch; test: Binding affinity to Bifidobacterium angulatum SAM-VI riboswitch assessed as dissociation constant by ITC analysis; type: nucleic-acid assay
[20] = tested on: S-adenosylmethionine-VI riboswitch; test: Binding affinity to Bifidobacterium angulatum SAM-VI riboswitch assessed as assessed as binding constant (Kon) by ITC analysis; type: nucleic-acid assay
Precursor microRNA-372 = test: Binding affinity to pre-miRNA-372 beacon (unknown origin) assessed as dissociation constant measured after 4 hrs by fluorescence based analysis; type: nucleic-acid assay
PreQ1 riboswitch [21] = test: Binding affinity to Alexa Fluor 647-labeled Tte preQ1 riboswitch assessed as dissociation constant by fluorescence based analysis; type: nucleic-acid assay, Caldanaerobacter subterraneus, subsp. tengcongensis
TAR RNA = test: Binding affinity to Alexa Fluor 488-labeled HIV-1 TAR RNA assessed as dissociation constant by fluorescence based analysis; type: nucleic-acid assay, Human immunodeficiency virus 1

Structure (SMILES) | Kd (PreQ1 riboswitch [4]) [µM] | K (PreQ1 riboswitch [5]) | koff (PreQ1 riboswitch [6]) [s⁻¹] | Kd (PreQ1 riboswitch [7]) [µM] | Kd (PreQ1 riboswitch [8]) [µM] | Kd (PreQ1 riboswitch [9]) [µM] | deltaG (PreQ1 riboswitch [10]) [kcal/mol] | deltaH (PreQ1 riboswitch [11]) [kcal/mol] | -TdeltaS (PreQ1 riboswitch [12]) [kcal/mol] | K (PreQ1 riboswitch [13]) | K (PreQ1 riboswitch [14]) | also measured
Nc1nc2c(ncn2[C@H]2C[C@H](N)[C@@H](CO)O2)c(=O)[nH]1 |  |  |  |  |  |  |  |  |  |  |  | Kd (Ribozyme [1]): 0.094 µM; K (Ribozyme [2]): > 2.1 10^7/M/min; K (Ribozyme [3]): > 2 min⁻¹
NCCCNC[C@H]1O[C@@H](n2cnc3c(N)ncnc32)[C@H](O)[C@@H]1O | 4.17 | 1.28 10^4/Ms | 0.0481 | 15.9 | 9.75 | 1.73 | -7.89 | -20.9 | 13 | 1.36 10^4/M/s | 2.38 10^-2/s | Kd [15]: 3.1 µM; K [16]: 1.48 10^4/M/s; K [17]: 4.59 10^-2/s; Kd [18]: 6.05 µM
Nc1ncnc2c1ncn2[C@@H]1O[C@H](CSCC[C@H](N)C(=O)O)[C@@H](O)[C@H]1O [S-ADENOSYLHOMOCYSTEINE] | 150 | 3.88 10^2/Ms | 0.054 | 121 | 34.4 | 14 | -6.64 | -8.27 | 1.63 | 3.57 10^3/M/s | 4.58 10^-2/s | Kd [19]: 10.9 µM; K [20]: 5.5 10^3/M/s
CC(=O)Nc1csc(-c2cccc(NC(=O)CCc3cn(C[C@H]4O[C@@H](O[C@@H]5[C@@H](O)[C@H](N)C[C@H](N)[C@H]5O[C@H]5O[C@H](CN)[C@@H](O)[C@H](O)[C@H]5N)[C@H](O)[C@@H]4O[C@H]4O[C@@H](CN)[C@@H](O)[C@H](O)[C@H]4N)nn3)c2)n1 |  |  |  |  |  |  |  |  |  |  |  | Kd (Precursor microRNA-372): 0.016 µM
Nc1nc2c(ncn2[C@@H]2O[C@H](CO)[C@@H](O)[C@H]2O)c(=O)[nH]1 [GUANOSINE] |  |  |  |  |  |  |  |  |  |  |  | Kd (Ribozyme [1]): 110 µM; K (Ribozyme [2]): 4 10^5/M/min; K (Ribozyme [3]): 44 min⁻¹
NCCOc1ccc2oc3ccccc3c2c1 |  |  |  |  |  |  |  |  |  |  |  | Kd (PreQ1 riboswitch [21]): 0.5 µM
CC(=O)Nc1nc(-c2cccc(NC(=O)[C@H]3C[C@H](OC(=O)[C@@H](N)CCCN)[C@@H](COC(=O)[C@@H](N)CCCCN)O3)c2)cs1 |  |  |  |  |  |  |  |  |  |  |  | Kd (TAR RNA): 8 µM
C[S+](CC[C@H](N)C(=O)[O-])C[C@H]1O[C@@H](n2cnc3c(N)ncnc32)[C@H](O)[C@@H]1O (stereo partly specified) [ADEMETIONINE] | 3.72 | 2.98 10^3/Ms |  | 4.53 | 0.718 | 0.671 | -8.44 | -14.5 | 6.09 | 2.13 10^4/M/s | 1.42 10^-2/s | Kd [19]: 0.33 µM; K [20]: 2.46 10^4/M/s
Nc1ncnc2c1ncn2[C@@H]1O[C@H](CNCC[C@H](N)C(=O)O)[C@@H](O)[C@H]1O | 12.3 | 2.94 10^3/Ms | 0.0361 | 20.7 | 33.3 | 3.31 | -7.48 | -22.8 | 15.3 | 1.54 10^4/M/s | 4.66 10^-2/s | 
NC[C@@H]1O[C@H](O[C@H]2[C@@H](O)[C@H](O[C@@H]3[C@@H](O)[C@H](N)C[C@H](N)[C@H]3O[C@H]3O[C@H](CN)[C@@H](O)[C@H](O)[C@H]3N)O[C@@H]2CO)[C@H](N)[C@@H](O)[C@@H]1O [FRAMYCETIN] |  |  |  |  |  |  |  |  |  |  |  | Kd (Precursor microRNA-372): 7.4 µM
